Values of other authors in patent US20190321395A1, “TREATMENT OF PSORIASIS, SEBORRHEIC DERMATITIS, AND ECZEMA OF THE HEAD AND NECK” (Oread Therapeutics, priority 2018, published 2019).

| SMILES | Water Solubility |
| --- | --- |
| CC(=O)N1CCN(c2ccc(OCC3COC(Cn4ccnc4)(c4ccc(Cl)cc4Cl)O3)cc2)CC1 (centres unmarked) [Ketoconazole] | 0.9 µg/mL |
| [O-][n+]1ccccc1[S-].[O-][n+]1ccccc1[S-].[Zn+2] [Pyrithione Zinc] | 86.00 µg/mL |
